Source: patent US12528947B2, “Infrared-absorbing composition, film, optical filter, solid-state imaging element, image display device, and infrared sensor” (FUJIFILM Corporation, priority 2020, dated 2026)

Tests used:
[1] = Evaluation of dissolved amount of infrared-absorbing coloring agent; type: physicochemical; conditions: 25° C., after stirring for 1 hour
Description: The infrared-absorbing coloring agent shown in the tables below was added to a measurement solvent shown in the tables below, while the temperature was adjusted to 25° C. under atmospheric pressure. After stirring for 1 hour, the dissolved amount of each infrared-absorbing coloring agent in the measurement solvent at 25° C. was determined. The dissolved amount of the infrared-absorbing coloring agent was evaluated based on the following standard. A case of A was judged to be a good solvent, and a case of B was judged to be a poor solvent. The infrared-absorbing coloring agent exists as particles in the poor solvent. PGMEA described in the column of measurement solvent in the following tables is an abbreviation for propylene glycol monomethyl ether acetate. • A: dissolved amount of the infrared-absorbing coloring agent in 100 g of the measurement solvent at 25° C. was 0.1 g or more. • B: dissolved amount of the infrared-absorbing coloring agent in 100 g of the measurement solvent at 25° C. was less than 0.1 g.

[2] = Maximal absorption wavelength of infrared-absorbing coloring agent in good solvent; type: physicochemical; conditions: coloring agent solution in dimethyl sulfoxide; for λmax: largest absorbance in 650 to 1500 nm; for Number of maximal absorption wavelengths: wavelength range 650 to 1500 nm
Description: Each infrared-absorbing coloring agent was dissolved in a solvent (good solvent) descried in the following table to prepare a coloring agent solution having a concentration of infrared-absorbing coloring agent of […], and absorption spectrum of the coloring agent solution was measured. The number of maximal absorption wavelengths existing in a wavelength range of 650 to 1500 nm and the wavelength (max) indicating the value having the largest absorbance are shown in the following table.

SMILES	λmax [2] [nm]	Number of maximal absorption wavelengths [2]	Solubility ([1]; Cyclopentanone)	Solubility ([1]; Dimethyl sulfoxide)	Solubility ([1]; PGMEA)	Solubility ([1]; Water)
Cc1ccccc1-c1c2/c(=C(\C#N)c3ccc4ccccc4n3)n(B(c3ccccc3)c3ccccc3)c(-c3ccc(OCCO)cc3)c2/c(=C(\C#N)c2ccc3ccccc3n2)n1B(c1ccccc1)c1ccccc1 [Comparative coloring agent 1, reference compound]	819	2	B (dissolved amount of the infrared-absorbing coloring agent in 100 g of the measurement solvent at 25 °C was less than 0.1 g)	A (dissolved amount of the infrared-absorbing coloring agent in 100 g of the measurement solvent at 25 °C was 0.1 g or more)	B (dissolved amount of the infrared-absorbing coloring agent in 100 g of the measurement solvent at 25 °C was less than 0.1 g)	B (dissolved amount of the infrared-absorbing coloring agent in 100 g of the measurement solvent at 25 °C was less than 0.1 g)
Cc1ccccc1-c1c2/c(=C(\C#N)c3ccc4ccccc4n3)n(B(c3ccccc3)c3ccccc3)c(-c3ccc(OCCCCS(=O)(=O)O)cc3)c2/c(=C(\C#N)c2ccc3ccccc3n2)n1B(c1ccccc1)c1ccccc1 [Example A-1]	819	2	B (dissolved amount of the infrared-absorbing coloring agent in 100 g of the measurement solvent at 25 °C was less than 0.1 g)	A (dissolved amount of the infrared-absorbing coloring agent in 100 g of the measurement solvent at 25 °C was 0.1 g or more)	B (dissolved amount of the infrared-absorbing coloring agent in 100 g of the measurement solvent at 25 °C was less than 0.1 g)	B (dissolved amount of the infrared-absorbing coloring agent in 100 g of the measurement solvent at 25 °C was less than 0.1 g)
Cc1ccccc1-c1c2/c(=C(\C#N)c3nc4ccccc4s3)n(B(c3ccccc3)c3ccccc3)c(-c3ccc(OCCCN(C)C)cc3)c2/c(=C(\C#N)c2nc3ccccc3s2)n1B(c1ccccc1)c1ccccc1 [Example A-3]	780	2	B (dissolved amount of the infrared-absorbing coloring agent in 100 g of the measurement solvent at 25 °C was less than 0.1 g)	A (dissolved amount of the infrared-absorbing coloring agent in 100 g of the measurement solvent at 25 °C was 0.1 g or more)	B (dissolved amount of the infrared-absorbing coloring agent in 100 g of the measurement solvent at 25 °C was less than 0.1 g)	B (dissolved amount of the infrared-absorbing coloring agent in 100 g of the measurement solvent at 25 °C was less than 0.1 g)
Cc1ccccc1-c1c2/c(=C(\C#N)c3nc4ccccc4s3)n(B(c3ccccc3)c3ccccc3)c(-c3ccc(OCCCCS(=O)(=O)O)cc3)c2/c(=C(\C#N)c2nc3ccccc3s2)n1B(c1ccccc1)c1ccccc1 [Example A-4]	779	2	B (dissolved amount of the infrared-absorbing coloring agent in 100 g of the measurement solvent at 25 °C was less than 0.1 g)	A (dissolved amount of the infrared-absorbing coloring agent in 100 g of the measurement solvent at 25 °C was 0.1 g or more)	B (dissolved amount of the infrared-absorbing coloring agent in 100 g of the measurement solvent at 25 °C was less than 0.1 g)	B (dissolved amount of the infrared-absorbing coloring agent in 100 g of the measurement solvent at 25 °C was less than 0.1 g)
Cc1ccccc1-c1c2/c(=C(\C#N)c3nc4ccc(Cl)cc4o3)n(B(c3ccccc3)c3ccccc3)c(-c3ccc(OCCCS(=O)(=O)O)cc3)c2/c(=C(\C#N)c2nc3ccc(Cl)cc3o2)n1B(c1ccccc1)c1ccccc1 [Example A-5]	746	2	B (dissolved amount of the infrared-absorbing coloring agent in 100 g of the measurement solvent at 25 °C was less than 0.1 g)	A (dissolved amount of the infrared-absorbing coloring agent in 100 g of the measurement solvent at 25 °C was 0.1 g or more)	B (dissolved amount of the infrared-absorbing coloring agent in 100 g of the measurement solvent at 25 °C was less than 0.1 g)	B (dissolved amount of the infrared-absorbing coloring agent in 100 g of the measurement solvent at 25 °C was less than 0.1 g)

The next lines start with results.

λmax [2] [nm]	Number of maximal absorption wavelengths [2]	SMILES	Solubility ([1]; Cyclopentanone)	Solubility ([1]; Dimethyl sulfoxide)	Solubility ([1]; PGMEA)	Solubility ([1]; Water)
801	2	COc1ccc2nc(/C(C#N)=c3/c4c(-c5ccccc5C)n(B(c5ccccc5)c5ccccc5)/c(=C(/C#N)c5nc6ccc(OC)cc6s5)c4c(-c4ccc(OCCCCS(=O)(=O)O)cc4)n3B(c3ccccc3)c3ccccc3)sc2c1 [Example A-6]	B (dissolved amount of the infrared-absorbing coloring agent in 100 g of the measurement solvent at 25 °C was less than 0.1 g)	A (dissolved amount of the infrared-absorbing coloring agent in 100 g of the measurement solvent at 25 °C was 0.1 g or more)	B (dissolved amount of the infrared-absorbing coloring agent in 100 g of the measurement solvent at 25 °C was less than 0.1 g)	B (dissolved amount of the infrared-absorbing coloring agent in 100 g of the measurement solvent at 25 °C was less than 0.1 g)
747	2	Cc1ccccc1-c1c2/c(=C(\C#N)c3nc4ccc(Br)cc4o3)n(B(c3ccccc3)c3ccccc3)c(-c3ccc(OCCCS(=O)(=O)O)cc3)c2/c(=C(\C#N)c2nc3ccc(Br)cc3o2)n1B(c1ccccc1)c1ccccc1 [Example A-7]	B (dissolved amount of the infrared-absorbing coloring agent in 100 g of the measurement solvent at 25 °C was less than 0.1 g)	A (dissolved amount of the infrared-absorbing coloring agent in 100 g of the measurement solvent at 25 °C was 0.1 g or more)	B (dissolved amount of the infrared-absorbing coloring agent in 100 g of the measurement solvent at 25 °C was less than 0.1 g)	B (dissolved amount of the infrared-absorbing coloring agent in 100 g of the measurement solvent at 25 °C was less than 0.1 g)
